From patent publication US6562837B1, “Use of tetrahydroisoquinoline compounds for the treatment of septicemia” (Korea Institute of Science & Technology, priority 1998, dated 2003)

What was measured:
[1] = test system: iNOS mRNA; assay: Suppression of LPS-induced iNOS mRNA expression in rat isolated aorta (Northern blot); format: cell-based; conditions: LPS 300 ng/ml, 8 hours; compound 10, 30 and 100 μM; FIG. 1
Description: Rats were anesthetized with pentobarbital sodium (50 mg/kg) and the aorta was isolated, followed by removing endothelium from the aorta. After being incubated at 37° C. for 8 hours in a Krebs solution containing 300 ng/ml of LPS, the aorta was subjected to total RNA extraction with the aid of a trizol solution (GibcoBRL). After quantification by use of a UV spectrophotometer (Shimadzu, UV-1201), the total RNA obtained was electrophoresed on a formamide-formaldehyde agarose gel and transferred to a nylon membrane. Thereafter, the total RNA on the nylon membrane was hybridized with cDNA probes for iNOS to determine the expression level of iNOS mRNA, in which the cDNA of iNOS was labeled with ^32P-dCTP by a random-primer method. For quantification, an x-ray film was exposed to the radioactive irradiation from the nylon membrane and developed to compare the dot sizes of desired objects with those of GAPDH (glyceraldehyde-3-phosphate dehydrogenase).
When aortic preparations were incubated, in vitro, the blood vessel was cultured, in vitro, in the presence of LPS, iNOS mRNA was transcribed in a large amount. […]

[2] = test system: iNOS mRNA in macrophages (RAW 264.7 cells); assay: Suppression of LPS- and IFN-γ-induced iNOS mRNA expression in macrophage (Northern blot); format: cell-based; conditions: LPS 100 ng/ml + IFN-γ 10 U/ml, 18 hours, compound 1, 10 and 100 μM, FIG. 2
Description: In a DMEM medium supplemented with thermally treated 10% fetal calf serum, penicillin (100 U/ml) and streptomycin ([…]), macrophages (RAW 264.7 cells) were cultured to be confluent in a CO2 incubator. After being transferred to a serum-free DMEM medium, the cells were cultured for additional 24 hours and then, further for 18 hours in the presence of LPS (100 ng/ml) and interferon-γ (hereinafter referred to as “IFN-γ”; 10 U/ml), and/or the compound of Chemical Formula 2 (0, 1, 10, and 100:μM). Using a trizol solution, the total RNA was extracted from the cultured macrophages. After quantification in a spectrophotometer, the total RNA obtained was electrophoresed on a formamide-formaldehyde agarose gel and transferred to a nylon membrane. Thereafter, the total RNA on the nylon membrane was hybridized with cDNA probes for iNOS to determine the expression level of iNOS mRNA, in which the cDNA of iNOS was labeled with ^32P-dCTP by a random-primer method. For quantification, an x-ray film was exposed to the radioactive irradiation from the nylon membrane and developed to compare the radioactivity level of desired objects with those of GAPDH. […]

With `Oc1cc2c(cc1O)C(Cc1cccc3ccccc13)NCC2` (stereo not drawn) [Compound 1, 1-α-naphthylmethyl-6,7-dihydroxy-1,2,3,4-tetrahydroisoquinoline] the “LPS-induced iNOS mRNA expression in isolated rat aorta” value [1] was “inhibits the LPS-induced iNOS mRNA expression in a concentration-dependent manner”.
In the case of `Oc1cc2c(cc1O)C(Cc1ccc3ccccc3c1)NCC2` (stereo not drawn) [Compound 2, 1-β-naphthylmethyl-6,7-dihydroxy-1,2,3,4-tetrahydroisoquinoline], the “LPS/IFN-γ-induced iNOS mRNA expression in macrophages” value [2] is reported as “inhibits the LPS/IFN-γ-induced iNOS mRNA expression in a concentration-dependent manner”.
